Source: US12122763B2, “Substituted piperidines for androgen receptor degradation” (UBIX THERAPEUTICS, INC., priority 2020, dated 2024)

Target: T1, Androgen Receptor (AR) protein (Homo sapiens, UniProt P10275, T878A)
T1 construct: endogenous in cells; host or cells: LNCaP
Assay: Androgen Receptor (AR) protein degradation assay in LNCaP cells, western blotting
Type: cell-based
Settings: 20 h; for inhibition at 0.01 µM: 0.01 μM compound; for inhibition at 0.1 µM: 0.1 μM compound; for inhibition at 1 µM: 1 μM compound
Procedure, shortened: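 LNCaP prostate cancer cells were cultured 3 days, then treated with compound for 20 h. Lysates in 1% SDS buffer were normalised by BCA, and 8 μg protein was run on 4–12% Bis-Tris gels. AR was immunoblotted with chemiluminescence, using GAPDH/β-actin as loading controls.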

T1 sequence (P10275 whole entry T878A): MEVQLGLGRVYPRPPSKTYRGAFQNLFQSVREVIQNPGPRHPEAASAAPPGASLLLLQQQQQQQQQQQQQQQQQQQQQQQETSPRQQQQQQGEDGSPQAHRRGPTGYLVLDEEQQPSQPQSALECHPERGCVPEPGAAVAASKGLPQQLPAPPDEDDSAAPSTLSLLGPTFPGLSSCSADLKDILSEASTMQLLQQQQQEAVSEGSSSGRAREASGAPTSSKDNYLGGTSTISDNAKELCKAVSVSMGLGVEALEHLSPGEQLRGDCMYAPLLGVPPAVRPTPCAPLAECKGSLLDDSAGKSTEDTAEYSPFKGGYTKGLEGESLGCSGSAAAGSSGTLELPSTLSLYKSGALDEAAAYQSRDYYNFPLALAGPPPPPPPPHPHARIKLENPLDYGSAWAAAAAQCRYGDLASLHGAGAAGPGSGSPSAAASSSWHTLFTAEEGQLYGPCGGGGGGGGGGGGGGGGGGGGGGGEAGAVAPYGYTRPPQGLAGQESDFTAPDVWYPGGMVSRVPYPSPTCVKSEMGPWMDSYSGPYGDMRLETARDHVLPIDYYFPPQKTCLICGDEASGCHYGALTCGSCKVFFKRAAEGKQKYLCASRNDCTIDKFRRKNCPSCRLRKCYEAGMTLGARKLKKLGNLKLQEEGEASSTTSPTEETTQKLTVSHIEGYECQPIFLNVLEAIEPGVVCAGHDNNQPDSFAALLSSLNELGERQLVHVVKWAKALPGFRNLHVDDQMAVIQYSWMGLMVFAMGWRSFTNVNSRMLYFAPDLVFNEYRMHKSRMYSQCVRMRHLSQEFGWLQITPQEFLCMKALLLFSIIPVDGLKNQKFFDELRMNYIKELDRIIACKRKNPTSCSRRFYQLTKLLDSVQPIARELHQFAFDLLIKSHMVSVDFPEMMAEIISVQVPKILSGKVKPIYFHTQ
T1 sequence (Q96SW2 whole entry partner): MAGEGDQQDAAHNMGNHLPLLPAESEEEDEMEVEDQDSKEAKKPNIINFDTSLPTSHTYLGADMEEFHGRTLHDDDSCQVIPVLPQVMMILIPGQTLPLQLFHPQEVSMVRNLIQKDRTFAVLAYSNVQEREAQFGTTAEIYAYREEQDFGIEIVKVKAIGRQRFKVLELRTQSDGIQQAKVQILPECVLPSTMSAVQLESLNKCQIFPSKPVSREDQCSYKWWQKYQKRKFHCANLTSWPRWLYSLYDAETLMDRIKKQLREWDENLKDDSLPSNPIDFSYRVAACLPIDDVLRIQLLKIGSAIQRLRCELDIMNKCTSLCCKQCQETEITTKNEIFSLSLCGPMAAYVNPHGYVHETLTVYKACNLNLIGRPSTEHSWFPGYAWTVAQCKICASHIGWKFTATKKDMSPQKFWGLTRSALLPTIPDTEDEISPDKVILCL

SMILES	inhibition at 0.01 µM [%]	inhibition at 0.1 µM [%]	inhibition at 1 µM [%]
N#Cc1ncc(N2CCC(C(=O)Nc3ccc(N4CCC(CN5CC6(CCN(c7ccc8c(c7)CN(C7CCC(=O)NC7=O)C8=O)CC6)C5)CC4)cn3)CC2)cc1C(F)(F)F (stereo not drawn) [Example 137, 1-(6-cyano-5-(trifluoromethyl)pyridin-3-yl)-N-(5-(4-((7-(2-(2,6-dioxopiperidin-3-yl)-1-oxoisoindolin-5-yl)-2,7-diazaspiro[3.5]nonan-2-yl)methyl)piperidin-1-yl)pyridin-2-yl)piperidine-4-carboxamide]	46	86	82
N#Cc1ccc(N2CCC(C(=O)Nc3ccc(N4CCC(CCN5CC6(CCN(c7ccc8c(c7)CN(C7CCC(=O)NC7=O)C8=O)CC6)C5)CC4)cn3)CC2)cc1C(F)(F)F (stereo not drawn) [Example 138, 1-(4-cyano-3-(trifluoromethyl)phenyl)-N-(5-(4-(2-(7-(2-(2,6-dioxopiperidin-3-yl)-1-oxoisoindolin-5-yl)-2,7-diazaspiro[3.5]nonan-2-yl)ethyl)piperidin-1-yl)pyridin-2-yl)piperidine-4-carboxamide]	52	95	90
N#Cc1ccc(N2CCC(C(=O)Nc3ccc(N4CCC(CCN5CCN(c6ccc7c(c6)CN(C6CCC(=O)NC6=O)C7=O)CC5)CC4)cn3)CC2)cc1C(F)(F)F (stereo not drawn) [Example 139, 1-(4-cyano-3-(trifluoromethyl)phenyl)-N-(5-(4-(2-(4-(2-(2,6-dioxopiperidin-3-yl)-1-oxoisoindolin-5-yl)piperazin-1-yl)ethyl)piperidin-1-yl)pyridin-2-yl)piperidine-4-carboxamide]	30	92	84
N#Cc1ccc(N2CCC(C(=O)Nc3ccc(N4CCC(CN5CCN(C6CCN(c7ccc8c(c7)CN(C7CCC(=O)NC7=O)C8=O)CC6)CC5)CC4)cn3)CC2)cc1C(F)(F)F (stereo not drawn) [Example 140, 1-(4-cyano-3-(trifluoromethyl)phenyl)-N-(5-(4-((4-(1-(2-(2,6-dioxopiperidin-3-yl)-1-oxoisoindolin-5-yl)piperidin-4-yl)piperazin-1-yl)methyl)piperidin-1-yl)pyridin-2-yl)piperidine-4-carboxamide]	87	98	95
N#Cc1ccc(N2CCC(F)(C(=O)Nc3ccc(N4CCC(CN5CCN(C6CCN(c7ccc8c(c7)CN(C7CCC(=O)NC7=O)C8=O)CC6)CC5)CC4)cn3)CC2)cc1C(F)(F)F (stereo not drawn) [Example 141, 1-(4-cyano-3-(trifluoromethyl)phenyl)-N-(5-(4-((4-(1-(2-(2,6-dioxopiperidin-3-yl)-1-oxoisoindolin-5-yl)piperidin-4-yl)piperazin-1-yl)methyl)piperidin-1-yl)pyridin-2-yl)-4-fluoropiperidine-4-carboxamide]	66	92	90
N#Cc1ncc(N2CCC(C(=O)Nc3ccc(N4CCC(CN5CCN(C6CCN(c7ccc8c(c7)CN(C7CCC(=O)NC7=O)C8=O)CC6)CC5)CC4)cn3)CC2)cc1C(F)(F)F (stereo not drawn) [Example 142, 1-(6-cyano-5-(trifluoromethyl)pyridin-3-yl)-N-(5-(4-((4-(1-(2-(2,6-dioxopiperidin-3-yl)-1-oxoisoindolin-5-yl)piperidin-4-yl)piperazin-1-yl)methyl)piperidin-1-yl)pyridin-2-yl)piperidine-4-carboxamide]	55	87	83
N#Cc1ccc(N2CCC(C(=O)Nc3ccc(N4CCC(CN5CCN(CC6CCN(c7ccc8c(c7)CN(C7CCC(=O)NC7=O)C8=O)CC6)CC5)CC4)cn3)CC2)cc1C(F)(F)F (stereo not drawn) [Example 143, 1-(4-cyano-3-(trifluoromethyl)phenyl)-N-(5-(4-((4-((1-(2-(2,6-dioxopiperidin-3-yl)-1-oxoisoindolin-5-yl)piperidin-4-yl)methyl)piperazin-1-yl)methyl)piperidin-1-yl)pyridin-2-yl)piperidine-4-carboxamide]	73	97	97
N#Cc1ccc(N2CCC(F)(C(=O)Nc3ccc(N4CCC(CN5CCN(CC6CCN(c7ccc8c(c7)CN(C7CCC(=O)NC7=O)C8=O)CC6)CC5)CC4)cn3)CC2)cc1C(F)(F)F (stereo not drawn) [Example 144, 1-(4-cyano-3-(trifluoromethyl)phenyl)-N-(5-(4-((4-((1-(2-(2,6-dioxopiperidin-3-yl)-1-oxoisoindolin-5-yl)piperidin-4-yl)methyl)piperazin-1-yl)methyl)piperidin-1-yl)pyridin-2-yl)-4-fluoropiperidine-4-carboxamide]	43	84	95
N#Cc1ncc(N2CCC(C(=O)Nc3ccc(N4CCC(CN5CCN(CC6CCN(c7ccc8c(c7)CN(C7CCC(=O)NC7=O)C8=O)CC6)CC5)CC4)cn3)CC2)cc1C(F)(F)F (stereo not drawn) [Example 145, 1-(6-cyano-5-(trifluoromethyl)pyridin-3-yl)-N-(5-(4-((4-((1-(2-(2,6-dioxopiperidin-3-yl)-1-oxoisoindolin-5-yl)piperidin-4-yl)methyl)piperazin-1-yl)methyl)piperidin-1-yl)pyridin-2-yl)piperidine-4-carboxamide]	20	84	88
N#Cc1ccc(N2CCC(C(=O)Nc3ccc(N4CCC(CN5CCC(Oc6ccc7c(c6)C(=O)N(C6CCC(=O)NC6=O)C7=O)CC5)CC4)cn3)CC2)cc1C(F)(F)F (stereo not drawn) [Example 146, 1-(4-cyano-3-(trifluoromethyl)phenyl)-N-(5-(4-((4-((2-(2,6-dioxopiperidin-3-yl)-1,3-dioxoisoindolin-5-yl)oxy)piperidin-1-yl)methyl)piperidin-1-yl)pyridin-2-yl)piperidine-4-carboxamide]	67	97	98
N#Cc1ccc(N2CCC(C(=O)Nc3ccc(N4CCC(CN5CCC(COc6ccc7c(c6)C(=O)N(C6CCC(=O)NC6=O)C7=O)CC5)CC4)cn3)CC2)cc1C(F)(F)F (stereo not drawn) [Example 147, 1-(4-cyano-3-(trifluoromethyl)phenyl)-N-(5-(4-((4-(((2-(2,6-dioxopiperidin-3-yl)-1,3-dioxoisoindolin-5-yl)oxy)methyl)piperidin-1-yl)methyl)piperidin-1-yl)pyridin-2-yl)piperidine-4-carboxamide]	68	96	97
N#Cc1ccc(N2CCC(C(=O)Nc3ccc(N4CC(CN5CCC(Oc6ccc7c(c6)C(=O)N(C6CCC(=O)NC6=O)C7=O)CC5)C4)cn3)CC2)cc1C(F)(F)F (stereo not drawn) [Example 148, 1-(4-cyano-3-(trifluoromethyl)phenyl)-N-(5-(3-((4-((2-(2,6-dioxopiperidin-3-yl)-1,3-dioxoisoindolin-5-yl)oxy)piperidin-1-yl)methyl)azetidin-1-yl)pyridin-2-yl)piperidine-4-carboxamide]	27	87	93
N#Cc1ccc(N2CCC(C(=O)Nc3ccc(N4CC(CN5CCC(COc6ccc7c(c6)C(=O)N(C6CCC(=O)NC6=O)C7=O)CC5)C4)cn3)CC2)cc1C(F)(F)F (stereo not drawn) [Example 149, 1-(4-cyano-3-(trifluoromethyl)phenyl)-N-(5-(3-((4-(((2-(2,6-dioxopiperidin-3-yl)-1,3-dioxoisoindolin-5-yl)oxy)methyl)piperidin-1-yl)methyl)azetidin-1-yl)pyridin-2-yl)piperidine-4-carboxamide]	56	97	97
N#Cc1ccc(N2CCC(C(=O)Nc3ccc(N4CCC(OCCN5CCN(c6ccc7c(c6)C(=O)N(C6CCC(=O)NC6=O)C7=O)CC5)CC4)cn3)CC2)cc1C(F)(F)F (stereo not drawn) [Example 150, 1-(4-cyano-3-(trifluoromethyl)phenyl)-N-(5-(4-(2-(4-(2-(2,6-dioxopiperidin-3-yl)-1,3-dioxoisoindolin-5-yl)piperazin-1-yl)ethoxy)piperidin-1-yl)pyridin-2-yl)piperidine-4-carboxamide]	55	97	99
N#Cc1ccc(N2CCC(C(=O)Nc3ccc(N4CCC(OCCN5CCN(c6ccc7c(c6)C(=O)N(C6CCC(=O)NC6=O)C7=O)CC5)CC4)cn3)CC2)cc1Cl (stereo not drawn) [Example 151, 1-(3-chloro-4-cyanophenyl)-N-(5-(4-(2-(4-(2-(2,6-dioxopiperidin-3-yl)-1,3-dioxoisoindolin-5-yl)piperazin-1-yl)ethoxy)piperidin-1-yl)pyridin-2-yl)piperidine-4-carboxamide]	-14	76	92
N#Cc1ccc(N2CCC(C(=O)Nc3ccc(N4CCC(OCCN5CCN(c6cccc7c6C(=O)N(C6CCC(=O)NC6=O)C7=O)CC5)CC4)cn3)CC2)cc1C(F)(F)F (stereo not drawn) [Example 152, 1-(4-cyano-3-(trifluoromethyl)phenyl)-N-(5-(4-(2-(4-(2-(2,6-dioxopiperidin-3-yl)-1,3-dioxoisoindolin-4-yl)piperazin-1-yl)ethoxy)piperidin-1-yl)pyridin-2-yl)piperidine-4-carboxamide]	-46	28	29
N#Cc1ccc(N2CCC(C(=O)Nc3ccc(N4CCC(O)(CCN5CCN(c6ccc7c(c6)C(=O)N(C6CCC(=O)NC6=O)C7=O)CC5)CC4)cn3)CC2)cc1C(F)(F)F (stereo not drawn) [Example 153, 1-(4-cyano-3-(trifluoromethyl)phenyl)-N-(5-(4-(2-(4-(2-(2,6-dioxopiperidin-3-yl)-1,3-dioxoisoindolin-5-yl)piperazin-1-yl)ethyl)-4-hydroxypiperidin-1-yl)pyridin-2-yl)piperidine-4-carboxamide]	56	95	97
